In ChEMBL document CHEMBL1131705, “A highly stereoselective synthesis of plaunotol and its thiourea derivatives as potent antibacterial agents against Helicobacter pylori” (1999):
Values after ≈ are worked out from the molar mass of the structure shown.

How the values were obtained:
Assay type in all cases: functional
Helicobacter pylori [1] = experiment: In vitro antibacterial activity against Helicobacter pylori (NCTC 11637)
Helicobacter pylori [2] = experiment: In vitro antibacterial activity against Helicobacter pylori (No. 7)
Helicobacter pylori [3] = experiment: In vitro antibacterial activity against Helicobacter pylori (CPY 2052)
Helicobacter pylori [4] = experiment: Antibacterial activity against Helicobacter pylori (No. 7)
Helicobacter pylori [5] = experiment: Antibacterial activity against Helicobacter pylori (CPY 2052)
Helicobacter pylori [6] = experiment: Antibacterial activity against Helicobacter pylori (NCTC 11637)

Structure (SMILES) | MIC (Helicobacter pylori [1]) | MIC (Helicobacter pylori [2]) | MIC (Helicobacter pylori [3]) | MIC (Helicobacter pylori [4]) | MIC (Helicobacter pylori [5]) | MIC (Helicobacter pylori [6])
CC(C)=CCC/C(C)=C/CCC(=CCCC(C)=CCO)C/N=C(\S)NCCc1ccccc1 | 25 µg/mL (≈ 53.3 µM) | 1.56 µg/mL (≈ 3.33 µM) | 1.56 µg/mL (≈ 3.33 µM) | – | – | –
CC(C)=CCC/C(C)=C/CC/C(=C/CC/C(C)=C/C/N=C(\S)NCCc1ccccc1)C/N=C(\S)NCCc1ccccc1 | 6.25 µg/mL (≈ 9.9 µM) | 6.25 µg/mL (≈ 9.9 µM) | 0.78 µg/mL (≈ 1.24 µM) | – | – | –
CC1(C)S[C@@H]2[C@H](NC(=O)[C@H](N)c3ccc(O)cc3)C(=O)N2[C@H]1C(=O)O [AMOXICILLIN] | 0.025 µg/mL (≈ 0.0684 µM) | 0.1 µg/mL (≈ 0.274 µM) | 0.05 µg/mL (≈ 0.137 µM) | – | – | –

Continued, values first:

MIC (Helicobacter pylori [1]) | MIC (Helicobacter pylori [2]) | MIC (Helicobacter pylori [3]) | MIC (Helicobacter pylori [4]) | MIC (Helicobacter pylori [5]) | MIC (Helicobacter pylori [6]) | Structure (SMILES)
≤ 0.1 µg/mL | ≤ 0.1 µg/mL | ≤ 0.1 µg/mL | – | – | – | CC(C)=CCC/C(C)=C/CC/C(=C/CC/C(C)=C/C/N=C(\S)NCCc1ccccc1)CO
– | – | – | 6.25 µg/mL (≈ 20.4 µM) | 6.25 µg/mL (≈ 20.4 µM) | 12.5 µg/mL (≈ 40.8 µM) | CC(C)=CCC/C(C)=C/CC/C(=C/CC/C(C)=C/CO)CO [PLAUNOTOL]
